According to patent US9156811B2 (priority 2008, dated 2015):
Where two headings read alike, the source gives them in different places.

What was measured:
[1] = target: T. brucei N-myristoyl transferase (Trypanosoma brucei brucei (strain 927/4 GUTat10.1), UniProt Q388H8); assay: biochemical; assay type: biochemical; settings: read-out: IC50 (μM) NMT Enzyme
[2] = tested on: Trypanosome (T. brucei brucei); assay: In-vitro antitrypanosomal efficacy assay (cell growth, resazurin); assay type: cell-based
Protocol: To column 12, 200 μl media was added to provide a no cells control. Plates were then incubated at 37° C. in an atmosphere of 5% CO2 for 69 hours, before the addition of 20 μl of 500 μM rezasurin solution, and a further incubation period of 4 hours. […] Concentration effect curves were fitted using non-linear regression using XLFit 4.2 and EC50 values determined.

[3] = CNS penetration: drug concentration in blood and brain after i.v. dosing; assay type: in vivo; settings: iv, female NMRI mouse, t = 5 min; for Kp at 5 min: brain / whole blood; for concentration at 5 min: average of three animals
Protocol: Assessment of the CNS penetration of NMT inhibitors was determined in the female NMRI mouse following i.v. dosing (n=3 per dose group, concentration measured after t=5 min).

NCI-H1299 = assay: In-vitro antiproliferative assay, NCI-H1299; assay type: cell-based; settings: Homo sapiens, read-out: IC50 NCI-H1299
MDA-MB-231 = assay: In-vitro antiproliferative assay, MDA-MB-231; assay type: cell-based, human; settings: read-out: IC50 MDA-MB-231
OE19 = assay: In-vitro antiproliferative assay, OE19; assay type: cell-based; settings: Homo sapiens, read-out: IC50 OE19
OE21 = assay: In-vitro antiproliferative assay, OE21; assay type: cell-based; settings: Homo sapiens, read-out: IC50 OE21
human NMT-1 = human NMT-1 (Homo sapiens (Human), UniProt P30419); assay: NMT enzyme inhibition scintillation proximity assay, human NMT-1; assay type: biochemical; settings: HuNMT-1
human NMT-1, sequence (P30419 whole entry): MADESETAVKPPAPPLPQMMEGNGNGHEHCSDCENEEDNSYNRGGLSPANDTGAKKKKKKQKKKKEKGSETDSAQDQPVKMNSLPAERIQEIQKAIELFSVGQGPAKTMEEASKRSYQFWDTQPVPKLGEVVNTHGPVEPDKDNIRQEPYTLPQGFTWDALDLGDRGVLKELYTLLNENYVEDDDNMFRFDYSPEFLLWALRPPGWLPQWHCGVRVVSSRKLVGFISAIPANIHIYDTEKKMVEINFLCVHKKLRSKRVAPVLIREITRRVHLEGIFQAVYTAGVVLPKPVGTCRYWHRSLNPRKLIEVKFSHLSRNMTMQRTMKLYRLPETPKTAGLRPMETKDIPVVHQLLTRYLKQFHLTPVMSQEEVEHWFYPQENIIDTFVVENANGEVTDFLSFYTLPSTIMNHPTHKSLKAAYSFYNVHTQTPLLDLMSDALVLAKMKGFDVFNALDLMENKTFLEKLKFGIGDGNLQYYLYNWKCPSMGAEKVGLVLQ

[4] = target: A. fumigatus N-myristoyl transferase (Aspergillus fumigatus (strain ATCC MYA-4609 / CBS 101355 / FGSC A1100 / Af293) (Neosartorya fumigata), UniProt Q9UVX3); assay: biochemical; assay type: biochemical; settings: read-out: IC50 (μM) NMT Enzyme (AfNMT)
HT29 = assay: In-vitro antiproliferative assay, HT29; assay type: cell-based, human
HCT116 = assay: In-vitro antiproliferative assay, HCT116; assay type: cell-based, human; settings: read-out: IC50 HCT116
C6 = assay: In-vitro antiproliferative assay, C6; settings: C6, 72 h, read-out: IC50 C6
H460 = assay: In-vitro antiproliferative assay, H460; settings: Homo sapiens, NCI-H460, 72 h, read-out: IC50 H460
MRC5 = assay: In-vitro antiproliferative assay, MRC5; settings: Homo sapiens, MRC5, 72 h, read-out: IC50 MRC5
A549 = assay: In-vitro antiproliferative assay, A549; settings: Homo sapiens, A549, 72 h, read-out: IC50 A549
SkBr3 = assay: In-vitro antiproliferative assay, SkBr3; settings: Homo sapiens, SK-BR-3, 72 h, read-out: IC50 SkBr3
RT112 = assay: In-vitro antiproliferative assay, RT112; settings: Homo sapiens, RT-112, 72 h, read-out: IC50 RT112
HT1080 = assay: In-vitro antiproliferative assay, HT1080; settings: Homo sapiens, HT-1080, 72 h, read-out: IC50 HT1080
[5] = value with no enzyme tag in the cell, taken as T. brucei NMT
[6] = brain, single i.v. dose 2.0 mg/kg, read-out: Conc (ng/ml in brain)
[7] = whole blood, single i.v. dose 2.0 mg/kg, read-out: Conc (ng/ml in blood)
[8] = value printed without enzyme tag in the NMT Enzyme column (taken as T. brucei NMT)
[9] = Homo sapiens, HCT-116, Table 4, 72 h, Alamar blue
[10] = Homo sapiens, MDA-MB-231, Table 4, 72 h, Alamar blue

T. brucei N-myristoyl transferase, sequence (Q388H8 1-446): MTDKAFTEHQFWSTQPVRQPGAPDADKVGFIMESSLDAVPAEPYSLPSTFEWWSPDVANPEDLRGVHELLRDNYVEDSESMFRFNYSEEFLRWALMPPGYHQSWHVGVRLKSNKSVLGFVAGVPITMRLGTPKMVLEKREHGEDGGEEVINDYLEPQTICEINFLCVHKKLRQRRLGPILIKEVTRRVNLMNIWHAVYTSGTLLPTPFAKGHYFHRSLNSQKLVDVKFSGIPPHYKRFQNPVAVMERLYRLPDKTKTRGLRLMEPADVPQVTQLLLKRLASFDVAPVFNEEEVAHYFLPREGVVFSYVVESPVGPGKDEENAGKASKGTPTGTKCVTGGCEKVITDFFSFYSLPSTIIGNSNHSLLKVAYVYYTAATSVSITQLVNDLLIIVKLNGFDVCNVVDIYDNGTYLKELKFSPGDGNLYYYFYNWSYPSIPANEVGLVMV

Compound: CCN(CC)Cc1cccc(-c2ccc([S+](=O)([O-])Nc3c(CC(C)C)nn(C)c3C)cc2)c1 [DDD88638]
- IC50 [1, 5]: 0.009 µM
- ED50 (μM) T. brucei ([2]; T. brucei cell growth): 0.084 µM
- Kp at 5 min ([3]; single i.v. dose 2.0 mg/kg): 1.35
- concentration at 5 min [3, 6]: 378 ng/mL
- concentration at 5 min [3, 7]: 281 ng/mL

Compound: Cc1nn(C)c(C)c1N[S+](=O)([O-])c1c(Cl)cc(-c2cccc(C3CCNCC3)c2)cc1Cl
- ED50 (μM) T. brucei ([2]; T. brucei cell growth): 0.02 µM
- IC50 (NCI-H1299; NCI-H1299, 72 h): 3710 nM
- IC50 (MDA-MB-231; Homo sapiens, MDA-MB-231, 72 h): 890 nM
- IC50 (OE19; OE19, 72 h): 4570 nM
- IC50 (OE21; OE21, 72 h): 1200 nM

Compound: Cc1nn(C)c(C)c1NS(=O)(=O)c1ccc(N2CCc3cccc(N)c3C2)nc1 [DDD73498, 6-(8-Amino-3,4-dihydro-1H-isoquinolin-2-yl)-pyridine-3-sulfonic acid (1,3,5-trimethyl-1H-pyrazol-4-yl)-amide]
- IC50 (human NMT-1): 4.3 µM
- IC50 [1, 8]: 0.32 µM
- IC50 ([4]; AfNMT): 14.7 µM
- ED50 (μM) T. brucei ([2]; T. brucei cell growth): 2.6 µM

Compound: Cc1nn(C)c(C)c1N[S+](=O)([O-])c1c(Cl)cc(-c2cccc(CN3CCN(C)CC3)c2)cc1Cl [DDD88558]
- ED50 (μM) T. brucei ([2]; T. brucei cell growth): 0.009 µM
- IC50 (HT29; Homo sapiens, HT-29, Table 4, 72 h, Alamar blue, read-out: IC50 HT-29): 176 nM
- IC50 (HCT116; [9]): 629 nM
- IC50 (MDA-MB-231; [10]): 448 nM

Compound: CCN(CC)Cc1cccc(-c2ccc([S+](=O)([O-])N(C)c3c(C)nn(C)c3C)cc2)c1 [DDD88195, 3′-Diethylaminomethyl-biphenyl-4-sulfonic acid methyl-(1,3,5-trimethyl-1H-pyrazol-4-yl)-amide]
- IC50 [1, 5]: 0.05 µM
- ED50 (μM) T. brucei ([2]; T. brucei cell growth): 0.51 µM
- Kp at 5 min ([3]; single i.v. dose 1.0 mg/kg): 0.8
- concentration at 5 min ([3]; brain, single i.v. dose 1.0 mg/kg, read-out: Conc (ng/ml in brain)): 93 ng/mL
- concentration at 5 min ([3]; whole blood, single i.v. dose 1.0 mg/kg, read-out: Conc (ng/ml in blood)): 116 ng/mL

Compound: Cc1nn(C)c(C)c1N(C)[S+](=O)([O-])c1ccc(CCCCCCn2ccnc2)cc1 [DDD99754]
- IC50 (human NMT-1): 2.1 µM
- IC50 [1, 5]: 0.105 µM
- IC50 [4]: > 1 µM
- ED50 (μM) T. brucei ([2]; T. brucei cell growth): >1 µM

Compound: Cc1nn(C)c(C)c1N[S+](=O)([O-])c1ccc(-c2cccc(CN3CCN(C)CC3)c2)cc1 [DDD86212, 3′-(4-Methyl-piperazin-1-ylmethyl)-biphenyl-4-sulfonic acid (1,3,6-trimethyl-1H-pyrazol-4-yl)-amide]
- ED50 (μM) T. brucei ([2]; T. brucei cell growth): 0.03 µM
- IC50 (NCI-H1299; NCI-H1299, Table 3, 72 h, Alamar blue): 1080 nM
- IC50 (MDA-MB-231; Homo sapiens, MDA-MB-231, Table 3, 72 h, Alamar blue): 640 nM
- IC50 (OE19; OE19, Table 3, 72 h, Alamar blue): 4370 nM
- IC50 (OE21; OE21, Table 3, 72 h, Alamar blue): 1390 nM

Compound: Cc1nn(C)c(C)c1N[S+](=O)([O-])c1c(Cl)cc(-c2ccnc(N3CCNCC3)c2)cc1Cl [DDD85646, 2,6-Dichloro-4-(2-piperazin-1-yl-pyridin-4-yl)-N-(1,3,5-trimethyl-1H-pyrazol-4-yl)-benzenesulfonamide]
- ED50 (μM) T. brucei ([2]; T. brucei cell growth): 0.001 µM
- IC50 (HT29; Homo sapiens, HT-29, 72 h, read-out: IC50 HT29): 112 nM
- IC50 (HT29; Homo sapiens, HT-29, 72 h, read-out: IC50 HT-29): 112 nM
- IC50 (HCT116; Homo sapiens, HCT-116, 72 h): 234 nM
- IC50 (NCI-H1299; NCI-H1299, 72 h): 570 nM
- IC50 (MDA-MB-231; Homo sapiens, MDA-MB-231, 72 h): 230 nM
- IC50 (OE19; OE19, 72 h): 660 nM
- IC50 (OE21; OE21, 72 h): 290 nM
- IC50 (C6): 1160 nM
- IC50 (H460): 1320 nM
- IC50 (MRC5): 123 nM
- IC50 (A549): 157 nM
- IC50 (SkBr3): 108 nM
- IC50 (RT112): 330 nM
- IC50 (HT1080): 60 nM

Compound: Cc1nn(C)c(C)c1N(C)[S+](=O)([O-])c1c(Cl)cc(Br)cc1Cl [DDD73490, 4-Bromo-2,6-dichloro-N-methyl-N-(1,3,5-trimethyl-1H-pyrazol-4-yl)-benzenesulfonamide]
- IC50 (human NMT-1): 4 µM
- IC50 [1, 8]: 0.36 µM
- IC50 ([4]; AfNMT): 3.9 µM
- ED50 (μM) T. brucei ([2]; T. brucei cell growth): 2.8 µM
- Kp at 5 min ([3]; single i.v. dose 0.33 mg/kg): 6
- concentration at 5 min ([3]; brain, single i.v. dose 0.33 mg/kg, read-out: Conc (ng/ml in brain)): 314 ng/mL
- concentration at 5 min ([3]; whole blood, single i.v. dose 0.33 mg/kg, read-out: Conc (ng/ml in blood)): 52 ng/mL

Compound: Cc1c(NS(=O)(=O)c2ccc(CCCC3CCN(C)CC3)cc2)c(CC(C)C)nn1C [DDD99837, N-(3-isobutyl-1,5-dimethyl-1H-pyrazol-4-yl)-4-(3-(1-methylpiperidin-4-yl)propyl)benzenesulfonamide]
- ED50 (μM) T. brucei ([2]; T. brucei brucei, blood stream form, variant 221): 0.036 µM
- Kp at 5 min ([3]; single i.v. dose 3.0 mg/kg): 0.26
- concentration at 5 min ([3]; brain, single i.v. dose 3.0 mg/kg, read-out: Conc (ng/ml in brain)): 99 ng/mL
- concentration at 5 min ([3]; whole blood, single i.v. dose 3.0 mg/kg, read-out: Conc (ng/ml in blood)): 388 ng/mL

Compound: Cc1nn(C)c(C)c1N[S+](=O)([O-])c1ccc(-c2cccc(Cn3ccnc3)c2)cc1 [DDD88006, 3′-imidazol-1-ylmethyl-biphenyl-4-sulfonic acid (1,3,6-trimethyl-1H-pyrazol-4-yl)-amide]
- IC50 [1, 5]: 0.35 µM
- IC50 [4]: 4.2 µM
- ED50 (μM) T. brucei ([2]; T. brucei cell growth): 3.9 µM

Compound: Cc1c(N[S+](=O)([O-])c2ccc(-c3cccc(CN(C)C)c3)cc2)c(CC(C)C)nn1C [DDD99742]
- ED50 (μM) T. brucei ([2]; T. brucei cell growth): 0.019 µM
- Kp at 5 min ([3]; single i.v. dose 2.0 mg/kg): 0.66
- concentration at 5 min [3, 6]: 422 ng/mL
- concentration at 5 min [3, 7]: 642 ng/mL

Compound: Cc1nn(C)c(C)c1N(C(F)F)[S+](=O)([O-])c1c(Cl)cc(CCCCC2CCN(C)CC2)cc1Cl [DDD100144, 2,6-dichloro-N-(difluoromethyl)-4-(4-(1-methylpiperidin-4-yl)butyl)-N-(1,3,5-trimethyl-1H-pyrazol-4-yl)benzenesulfonamide]
- IC50 (HCT116; Homo sapiens, HCT-116, 72 h): 282 nM
- IC50 (MDA-MB-231; Homo sapiens, MDA-MB-231, 72 h): 218 nM
- concentration at 5 min [3, 6]: 545 ng/mL
- concentration at 5 min [3, 7]: 413 ng/mL

Compound: COc1cc2c(cc1OC)CN(c1ccc([S+](=O)([O-])Nc3c(C)nn(C)c3C)cn1)CC2 [DDD73476]
- IC50 (human NMT-1): 2.3 µM
- IC50 [1, 8]: 0.32 µM
- IC50 ([4]; AfNMT): 4.8 µM
- ED50 (μM) T. brucei ([2]; T. brucei cell growth): 1.8 µM

Compound: Cc1nn(C)c(C)c1N(C(F)F)[S+](=O)([O-])c1c(Cl)cc(CCCOC2CCN(C)CC2)cc1Cl [DDD100169]
- IC50 (HCT116; [9]): 419 nM
- IC50 (MDA-MB-231; [10]): 249 nM

Compound: Cc1c(N[S+](=O)([O-])c2c(Cl)cc(CCCC3CCNCC3)cc2Cl)c(CC(C)C)nn1C [DDD90086]
- IC50 [1, 5]: 0.004 µM
- ED50 (μM) T. brucei ([2]; T. brucei cell growth): 0.006 µM
- IC50 (HT29; Table 4, 72 h, Alamar blue, read-out: IC50 HT-29): 281 nM
- IC50 (HCT116; Table 4, 72 h, Alamar blue): 921 nM
- IC50 (MDA-MB-231; Table 4, 72 h, Alamar blue): 537 nM

Compound: Cc1c(N[S+](=O)([O-])c2c(Cl)cc(-c3ccnc(N4CCNCC4)c3)cc2Cl)c(CC(C)C)nn1C [DDD86481, 2,6-Dichloro-N-(3-isobutyl-1,5-dimethyl-1H-pyrazol-4-yl)-4-(2-piperazin-1-yl-pyridin-4-yl)-benzenesulfonamide]
- IC50 (NCI-H1299; NCI-H1299, 72 h): 96 nM
- IC50 (MDA-MB-231; Homo sapiens, MDA-MB-231, 72 h): 47 nM
- IC50 (OE19; OE19, 72 h): 132 nM
- IC50 (OE21; OE21, 72 h): 57 nM
